Data as given in patent US20100179058A1, “Azolylmethyloxiranes, Their Use for Controlling Phytopathogenic Fungi, and Compositions Comprising Them” (BASF SE, priority 2006, published 2010).

Legend:
[1] = system: Alternaria solani; experiment: Activity against early blight of tomato caused by Alternaria solani (Alteso P1), greenhouse; type: in vivo; details: tomato plants, comparative experiment, untreated 90
Description: The active compounds were prepared separately or jointly as a stock solution comprising 25 mg of active compound which was made up to 10 ml using a mixture of acetone and/or DMSO and the emulsifier Wettol EM 31 (wetting agent having emulsifying and dispersing action based on ethoxylated alkylphenol) in a volume ratio of solvent/emulsifier of 99:1. The mixture was then made up to 100 ml with water. This stock solution was diluted with the solvent/emulsifier/water mixture described to give the concentration of active compound stated below. Leaves of potted tomato plants were sprayed to runoff point with an aqueous suspension having the active compound concentration stated below. The next day, the leaves were inoculated with an aqueous spore suspension of Alternaria solani in a 2% strength biomalt solution. The plants were then placed in a water vapor-saturated chamber at temperatures between 20 and 22° C. After 5 days, the disease on the untreated but infected control plants had developed to such an extent that the infection could be determined visually in %. […]

[2] = system: Botrytis cinerea; experiment: Activity against gray mold on bell pepper leaves caused by Botrytis cinerea, 1 day protective application (Botrci P1), greenhouse; type: in vivo; details: bell pepper seedlings, comparative experiment, untreated 100
Description: The active compounds were prepared separately or jointly as a stock solution comprising 25 mg of active compound which was made up to 10 ml using a mixture of acetone and/or DMSO and the emulsifier Wettol EM 31 (wetting agent having emulsifying and dispersing action based on ethoxylated alkylphenol) in a volume ratio of solvent/emulsifier of 99:1. The mixture was then made up to 100 ml with water. This stock solution was diluted with the solvent/emulsifier/water mixture described to give the concentration of active compound stated below. Bell pepper seedlings were, after 2-3 leaves were well developed, sprayed to runoff point with an aqueous suspension having the active compound concentration stated below. The next day, the treated plants were inoculated with a spore suspension of Botrytis cinerea in a 2% strength biomalt solution. The test plants were then placed in a dark climatized chamber at 22 to 24° C., and high atmospheric humidity. After 5 days, the extent of the fungal infection on the leaves could be determined visually in %.

[3] = system: Alternaria solani; experiment: Activity against Alternaria solani early blight pathogen in the microtiter test (Alteso); type: cell-based; details: 125 ppm active compound, microtiter plate, 405 nm, day 7 after inoculation
Description: (§1) The active compounds were formulated separately as a stock solution having a concentration of […] in DMSO. The stock solution is pipetted onto a microtiter plate (MTP) and diluted to the stated active compound concentration using a malt-based aqueous nutrient medium for fungi. An aqueous spore suspension of Alternaria solani was then added. The plates were placed in a water vapor-saturated chamber at temperatures of 18° C. Using an absorbtion photometer, the MTPs were measured at 405 nm on day 7 after the inoculation. The measured parameters were compared to the growth of the active compound-free control variant and the fungus- and active compound-free blank value to determine the relative growth in % of the pathogens in the individual active compounds.

[4] = system: Septoria tritici; experiment: Activity against the Septoria leaf blotch pathogen Septoria tritici in the microtiter test (Septtr); type: cell-based; details: 125 ppm active compound, microtiter plate, 405 nm, day 7 after inoculation
Description: as §1, with “Septoria tritici” for “Alternaria solani”

SMILES: Fc1ccc(C2(Cn3cncn3)OC2c2ccccc2Cl)c(F)c1 (racemic) [8.12]
- Infection in % at 63 ppm for Alteso P1 [1]: 10%
- Infection in % at 63 ppm for Botrci P1 [2]: 30%

SMILES: Cc1cccc(C2OC2(Cn2cncn2)c2ccc(F)cc2F)c1 (stereo not drawn) [8.8]
- growth (relative growth in % of the pathogens) [3]: 0%
- growth (relative growth in % of the pathogens) [4]: 0%

SMILES: Fc1ccccc1C1(Cn2cncn2)OC1c1ccccc1Cl (stereo not drawn) [Comp. No. 6 of EP-A 0196038, reference compound]
- Infection in % at 63 ppm for Alteso P1 [1]: 90%
- Infection in % at 63 ppm for Botrci P1 [2]: 100%
